The source of these data is US20050107473A1, “Process for producing tert-leucine” (AJINOMOTO CO. INC, priority 2002, published 2005).

The data set is described as follows: solubility of L-tert-leucine in aqueous solutions. Conditions: 10° C. The class given is physicochemical.

Turning to `CC(C)(C)[C@H](N)C(=O)O` [L-tert-leucine], the “solubility in 1N aqueous hydrochloric acid solution” value (1N aqueous hydrochloric acid solution) is listed as 20.4 wt %. In addition, the solubility in water (water) is listed as 12.7 wt %.
